Assay results taken from ChEMBL document CHEMBL4627246, “Pyroglutamide-Based P2X7 Receptor Antagonists Targeting Inflammatory Bowel Disease” (J Med Chem, 2020).

Assays:
Assay type in all cases: cell-based
SR = experiment: Cytotoxicity against human SR cells assessed as effect on cell growth at 10 uM incubated for 48 hrs by sulforhodamine B assay
MOLT-4 = experiment: Cytotoxicity against human MOLT4 cells assessed as effect on cell growth at 10 uM incubated for 48 hrs by sulforhodamine B assay; details: molt-4, 48 h
EKVX = experiment: Cytotoxicity against human EKVX cells assessed as effect on cell growth at 10 uM incubated for 48 hrs by sulforhodamine B assay
HL-60(TB) = experiment: Cytotoxicity against human HL-60(TB) cells assessed as effect on cell growth at 10 uM incubated for 48 hrs by sulforhodamine B assay
HOP-92 = experiment: Cytotoxicity against human HOP92 cells assessed as effect on cell growth at 10 uM incubated for 48 hrs by sulforhodamine B assay; details: hop-92, 48 h
NCI-H226 = experiment: Cytotoxicity against human NCI-H226 cells assessed as effect on cell growth at 10 uM incubated for 48 hrs by sulforhodamine B assay; details: nci-h226, 48 h
NCI-H23 = experiment: Cytotoxicity against human NCI-H23 cells assessed as effect on cell growth at 10 uM incubated for 48 hrs by sulforhodamine B assay; details: nci-h23, 48 h
NCI-H522 = experiment: Cytotoxicity against human NCI-H522 cells assessed as effect on cell growth at 10 uM incubated for 48 hrs by sulforhodamine B assay; details: nci-h522, 48 h
SW-620 = experiment: Cytotoxicity against human SW620 cells assessed as effect on cell growth at 10 uM incubated for 48 hrs by sulforhodamine B assay; details: sw-620, 48 h
SF-268 = experiment: Cytotoxicity against human SF268 cells assessed as effect on cell growth at 10 uM incubated for 48 hrs by sulforhodamine B assay; details: sf-268, 48 h
SNB-19 = experiment: Cytotoxicity against human SNB19 cells assessed as effect on cell growth at 10 uM incubated for 48 hrs by sulforhodamine B assay; details: snb-19, 48 h
LOX IMVI = experiment: Cytotoxicity against human LOXIMVI cells assessed as effect on cell growth at 10 uM incubated for 48 hrs by sulforhodamine B assay
SK-MEL-5 = experiment: Cytotoxicity against human SK-MEL-5 cells assessed as effect on cell growth at 10 uM incubated for 48 hrs by sulforhodamine B assay; details: sk-mel-5, 48 h
UACC-257 = experiment: Cytotoxicity against human UACC257 cells assessed as effect on cell growth at 10 uM incubated for 48 hrs by sulforhodamine B assay; details: uacc-257, 48 h
OVCAR-5 = experiment: Cytotoxicity against human OVCAR5 cells assessed as effect on cell growth at 10 uM incubated for 48 hrs by sulforhodamine B assay; details: ovcar-5, 48 h
SK-OV-3 = experiment: Cytotoxicity against human SKOV3 cells assessed as effect on cell growth at 10 uM incubated for 48 hrs by sulforhodamine B assay; details: sk-ov-3, 48 h
786-0 = experiment: Cytotoxicity against human 786-0 cells assessed as effect on cell growth at 10 uM incubated for 48 hrs by sulforhodamine B assay; details: 786-0, 48 h
SN12C = experiment: Cytotoxicity against human SN12C cells assessed as effect on cell growth at 10 uM incubated for 48 hrs by sulforhodamine B assay
TK-10 = experiment: Cytotoxicity against human TK10 cells assessed as effect on cell growth at 10 uM incubated for 48 hrs by sulforhodamine B assay; details: tk-10, 48 h
PC-3 = experiment: Cytotoxicity against human PC3 cells assessed as effect on cell growth at 10 uM incubated for 48 hrs by sulforhodamine B assay; details: pc-3, 48 h

Measured: Activity

COc1ccc(CNC(=O)[C@@H]2CCC(=O)N2Cc2ccc(Cl)cc2Cl)c(OC)c1
Non-Toxic: all assays above

CCCCCCN1C(=O)[C@@H]2C/C(=C\N(C)C)C(=O)N2C1N(C)C (stereo not given in full)
Non-Toxic: all assays above

CN1C(=O)CC[C@H]1C(=O)NCc1cccc(C(F)(F)F)c1Cl [GSK1482160]
Non-Toxic: all assays above

O=C(NCc1ccc(Cl)cc1Cl)[C@@H]1CCC(=O)N1c1ccccc1
Non-Toxic: all assays above

COc1ccc(NC(=O)[C@@H]2CCC(=O)N2)cc1OC
Non-Toxic: all assays above

CN1C(=O)CC[C@H]1C(=O)NCc1cc(C(F)(F)F)ccc1Cl
Non-Toxic: all assays above

O=C(NCc1ccc(Cl)cc1Cl)[C@@H]1CCC(=O)N1c1nccs1
Non-Toxic: all assays above

CN(C)/C=C1\C[C@H]2C(=O)N(/C(=C/N(C)C)c3ccncc3)C(N(C)C)N2C1=O (stereo not given in full)
Non-Toxic: all assays above

O=C1N[C@H](C(=O)NCc2ccc(Cl)cc2Cl)C/C1=N\O (stereo in doubt)
Non-Toxic: all assays above

O=C(NCc1ccc(Cl)cc1Cl)[C@@H]1CCC(=O)N1c1ccsc1
Non-Toxic: all assays above

O=C(NCc1ccccc1Cl)[C@@H]1CCC(=O)N1c1ccccc1
Non-Toxic: all assays above

CN(C)C(=O)[C@@H]1CCC(=O)N1
Non-Toxic: all assays above

O=C(NCc1ccc(Cl)cc1Cl)[C@@H]1COC(=O)N1c1cccs1
Non-Toxic: all assays above

CN(C)/C=C1\C[C@@H](C(=O)NCc2ccc(Cl)cc2Cl)N(c2cccs2)C1=O
Non-Toxic: all assays above
